Reference: the NIST ThermoML archive (doi:10.1016/j.jct.2009.11.020)
Numbers after ± are expanded uncertainties.

Tests used:
[1] = 293.15 K; 101.33 kPa; Liquid; Vibrating tube method
[2] = refractive index (Na D-line) (dimensionless); settings: 293.15 K; 101.33 kPa; Liquid; Standard Abbe refractometry

mass density [1] [kg/m3] | refractive index [2] | SMILES
1261.3 ± 0.5 | 1.474 ± 0.001 | OCC(O)CO [glycerol]
791.03 ± 0.23 | 1.328 ± 0.001 | CO [methanol]
– | 1.333 ± 0.001 | O [water]
